Results taken from patent publication US8247211B2, “Glycopeptide antibiotics” (American Cyanamid Company, priority 2001, dated 2012).
Converted amounts (≈) assume the structure as drawn. Each block holds one compound with its values, some of them ahead of it.

Columns and labels:
Assay in all cases: In vitro antibacterial evaluation: minimum inhibitory concentration (MIC), broth dilution method
Format in all cases: cell-based
[1] = tested on: Enterococcus sp.
Procedure, shortened: (§1)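 MIC read as lowest drug level preventing visible growth. Organisms at 5×10^5 CFU/mL were exposed to a 64-0.06 μg/mL dilution series in Muller-Hinton II […] following NCCLS broth dilution standard M7-A2.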

[2] = tested on: Escherichia coli
Procedure, shortened: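 NCCLS M7-A2 broth dilution with Mueller-Hinton II, testing 64-0.06 μg/mL antibiotic against 5×10^5 CFU/mL inocula. Test strains include recent methicillin-, penicillin- or vancomycin-resistant clinical isolates. MIC is the lowest concentration preventing growth.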

[3] = tested on: Staphylococcus sp.; conditions: 18 hours at 35° C.
Procedure, shortened: as §1

[4] = tested on: Escherichia coli; remark: listed apart in the source

MIC Enterococcus avium (GC 4558) [1]: 32 µg/mL (≈ 22.3 µM)
MIC Enterococcus faecalis (ATCC 29212) [1]: 32 µg/mL (≈ 22.3 µM)
MIC Enterococcus faecalis (GC 4553) [1]: 32 µg/mL (≈ 22.3 µM)
MIC Enterococcus faecalis (GC 4554) [1]: 32 µg/mL (≈ 22.3 µM)
MIC Enterococcus faecium (GC 2243) [1]: 32 µg/mL (≈ 22.3 µM)
MIC Enterococcus faecium (GC 4556) [1]: 32 µg/mL (≈ 22.3 µM)
MIC Enterococcus faecium (GC 4557) [1]: 8 µg/mL (≈ 5.57 µM)
MIC Escherichia coli (GC 4559) [2]: >64 µg/mL
MIC Escherichia coli (GC 4560) [2]: 4 µg/mL (≈ 2.79 µM)
MIC Coagulase Negative Staphylococcus (GC 4547) [3]: 4 µg/mL (≈ 2.79 µM)
MIC Coagulase Negative Staphylococcus (GC 4547) ([3]; broth dilution): 4 µg/mL (≈ 2.79 µM)
MIC Coagulase Negative Staphylococcus (GC 4548) [3]: 4 µg/mL (≈ 2.79 µM)
MIC Coagulase Negative Staphylococcus (GC 4548) ([3]; broth dilution): 4 µg/mL (≈ 2.79 µM)
MIC Coagulase Negative Staphylococcus (GC 4549) [3]: 4 µg/mL (≈ 2.79 µM)
MIC Coagulase Negative Staphylococcus (GC 4549) ([3]; broth dilution): 4 µg/mL (≈ 2.79 µM)
MIC Coagulase Negative Staphylococcus (GC 4551) [3]: 4 µg/mL (≈ 2.79 µM)
MIC Coagulase Negative Staphylococcus (GC 4551) ([3]; broth dilution): 4 µg/mL (≈ 2.79 µM)
MIC Staphylococcus aureus (ATCC 29213) [3]: 8 µg/mL (≈ 5.57 µM)
MIC Staphylococcus aureus (ATCC 29213) ([3]; broth dilution): 8 µg/mL (≈ 5.57 µM)
MIC Staphylococcus aureus (GC 1131) [3]: 8 µg/mL (≈ 5.57 µM)
MIC Staphylococcus aureus (GC 1131) ([3]; broth dilution): 8 µg/mL (≈ 5.57 µM)
MIC Staphylococcus aureus (GC 4541) [3]: 8 µg/mL (≈ 5.57 µM)
MIC Staphylococcus aureus (GC 4541) ([3]; broth dilution): 8 µg/mL (≈ 5.57 µM)
MIC Staphylococcus aureus (GC 4542) [3]: 8 µg/mL (≈ 5.57 µM)
MIC Staphylococcus aureus (GC 4542) ([3]; broth dilution): 8 µg/mL (≈ 5.57 µM)
MIC Staphylococcus aureus (GC 4544) [3]: 8 µg/mL (≈ 5.57 µM)
MIC Staphylococcus aureus (GC 4544) ([3]; broth dilution): 8 µg/mL (≈ 5.57 µM)
MIC Staphylococcus aureus (GC 4545) [3]: 4 µg/mL (≈ 2.79 µM)
MIC Staphylococcus aureus (GC 4545) ([3]; broth dilution): 4 µg/mL (≈ 2.79 µM)
MIC Staphylococcus aureus-SMITH (GC 4543) [3]: 4 µg/mL (≈ 2.79 µM)
MIC Staphylococcus aureus-SMITH (GC 4543) ([3]; broth dilution): 4 µg/mL (≈ 2.79 µM)
MIC Escherichia coli (ATCC 25922) [4]: >64 µg/mL
SMILES: CC(=O)OCC1OC(OC2C(CO)OC(Oc3ccc(CC4NC(=O)C(C(C)c5ccccc5)NC(=O)CNC(=O)C(CO)NC(=O)C(C(O)C5CNC(=N)N5C5OC(CO)C(O)C(O)C5O)NC(=O)C(C(O)C5CNC(=N)N5)NC4=O)cc3)C(O)C2O)C(O)C(OC(=O)CCC(C)C)C1O (stereo not drawn) [Example 270b, Cyclo[glycyl-β-methylphenylalanyl-O-[4-O-[6-O-acetyl-3-O-(4-methylpentanoyl)hexopyranosyl]hexopyranosyl]tyrosyl-3-(2-iminoimidazolidin-4-yl)seryl-3-(3-hexopyranosyl-2-iminoimidazolidin-4-yl)serylseryl]]
MIC Staphylococcus haemolyticus (GC 4546) [3]: 4 µg/mL (≈ 2.79 µM)
MIC Staphylococcus haemolyticus (GC 4546) ([3]; broth dilution): 4 µg/mL (≈ 2.79 µM)

MIC Enterococcus avium (GC 4558) [1]: 32 µg/mL (≈ 23.2 µM)
MIC Enterococcus faecalis (ATCC 29212) [1]: 32 µg/mL (≈ 23.2 µM)
MIC Enterococcus faecalis (GC 4553) [1]: 32 µg/mL (≈ 23.2 µM)
MIC Enterococcus faecalis (GC 4554) [1]: 32 µg/mL (≈ 23.2 µM)
MIC Enterococcus faecalis (GC 6189) [1]: 32 µg/mL (≈ 23.2 µM)
MIC Enterococcus faecium (GC 2243) [1]: 32 µg/mL (≈ 23.2 µM)
MIC Enterococcus faecium (GC 4556) [1]: 32 µg/mL (≈ 23.2 µM)
MIC Enterococcus faecium (GC 4557) [1]: 8 µg/mL (≈ 5.81 µM)
MIC Escherichia coli (GC 4559) [2]: >64 µg/mL
MIC Escherichia coli (GC 4560) [2]: 4 µg/mL (≈ 2.9 µM)
MIC Coagulase Negative Staphylococcus (GC 4547) [3]: 4 µg/mL (≈ 2.9 µM)
MIC Coagulase Negative Staphylococcus (GC 4547) ([3]; broth dilution): 4 µg/mL (≈ 2.9 µM)
MIC Coagulase Negative Staphylococcus (GC 4548) [3]: 4 µg/mL (≈ 2.9 µM)
MIC Coagulase Negative Staphylococcus (GC 4548) ([3]; broth dilution): 4 µg/mL (≈ 2.9 µM)
MIC Coagulase Negative Staphylococcus (GC 4549) [3]: 2 µg/mL (≈ 1.45 µM)
MIC Coagulase Negative Staphylococcus (GC 4549) ([3]; broth dilution): 2 µg/mL (≈ 1.45 µM)
MIC Coagulase Negative Staphylococcus (GC 4551) [3]: 8 µg/mL (≈ 5.81 µM)
MIC Coagulase Negative Staphylococcus (GC 4551) ([3]; broth dilution): 8 µg/mL (≈ 5.81 µM)
MIC Coagulase Negative Staphylococcus (GC 6257) [3]: 2 µg/mL (≈ 1.45 µM)
MIC Coagulase Negative Staphylococcus (GC 6257) ([3]; broth dilution): 2 µg/mL (≈ 1.45 µM)
MIC Staphylococcus aureus (ATCC 29213) [3]: 8 µg/mL (≈ 5.81 µM)
MIC Staphylococcus aureus (ATCC 29213) ([3]; broth dilution): 8 µg/mL (≈ 5.81 µM)
MIC Staphylococcus aureus (GC 1131) [3]: 8 µg/mL (≈ 5.81 µM)
MIC Staphylococcus aureus (GC 1131) ([3]; broth dilution): 8 µg/mL (≈ 5.81 µM)
MIC Staphylococcus aureus (GC 3051) [3]: 4 µg/mL (≈ 2.9 µM)
MIC Staphylococcus aureus (GC 3051) ([3]; broth dilution): 4 µg/mL (≈ 2.9 µM)
MIC Staphylococcus aureus (GC 3053) [3]: 8 µg/mL (≈ 5.81 µM)
MIC Staphylococcus aureus (GC 3053) ([3]; broth dilution): 8 µg/mL (≈ 5.81 µM)
MIC Staphylococcus aureus (GC 4541) [3]: 8 µg/mL (≈ 5.81 µM)
MIC Staphylococcus aureus (GC 4541) ([3]; broth dilution): 8 µg/mL (≈ 5.81 µM)
MIC Staphylococcus aureus (GC 4542) [3]: 8 µg/mL (≈ 5.81 µM)
MIC Staphylococcus aureus (GC 4542) ([3]; broth dilution): 8 µg/mL (≈ 5.81 µM)
MIC Staphylococcus aureus (GC 4544) [3]: 8 µg/mL (≈ 5.81 µM)
MIC Staphylococcus aureus (GC 4544) ([3]; broth dilution): 8 µg/mL (≈ 5.81 µM)
MIC Staphylococcus aureus (GC 4545) [3]: 4 µg/mL (≈ 2.9 µM)
MIC Staphylococcus aureus (GC 4545) ([3]; broth dilution): 4 µg/mL (≈ 2.9 µM)
MIC Staphylococcus aureus-SMITH (GC 4543) [3]: 8 µg/mL (≈ 5.81 µM)
MIC Staphylococcus aureus-SMITH (GC 4543) ([3]; broth dilution): 8 µg/mL (≈ 5.81 µM)
MIC Escherichia coli (ATCC 25922) [4]: >64 µg/mL
SMILES: CC=C(C)C(=O)OC1C(CO)OC(OC2C(CO)OC(Oc3ccc(CC4NC(=O)C(C(C)c5ccccc5)NC(=O)CNC(=O)C(CO)NC(=O)C(C(O)C5CNC(=N)N5C5OC(CO)C(O)C(O)C5O)NC(=O)C(C(O)C5CNC(=N)N5)NC4=O)cc3)C(O)C2O)C(O)C1O (stereo not drawn) [Example 278b, Cyclo[glycyl-β-methylphenylalanyl-O-[4-O-[4-O-(2-methylbut-2-enoyl)hexopyranosyl]-hexopyranosyl]tyrosyl-3-(2-iminoimidazolidin-4-yl)seryl-3-(3-hexopyranosyl-2-imino-imidazolidin-4-yl)serylseryl]]
MIC Staphylococcus haemolyticus (GC 4546) [3]: 4 µg/mL (≈ 2.9 µM)
MIC Staphylococcus haemolyticus (GC 4546) ([3]; broth dilution): 4 µg/mL (≈ 2.9 µM)

MIC Enterococcus avium (GC 4558) [1]: 32 µg/mL (≈ 23.2 µM)
MIC Enterococcus faecalis (ATCC 29212) [1]: 32 µg/mL (≈ 23.2 µM)
MIC Enterococcus faecalis (GC 4553) [1]: 32 µg/mL (≈ 23.2 µM)
MIC Enterococcus faecalis (GC 4554) [1]: 32 µg/mL (≈ 23.2 µM)
MIC Enterococcus faecalis (GC 6189) [1]: 32 µg/mL (≈ 23.2 µM)
MIC Enterococcus faecium (GC 2243) [1]: 32 µg/mL (≈ 23.2 µM)
MIC Enterococcus faecium (GC 4556) [1]: 32 µg/mL (≈ 23.2 µM)
MIC Enterococcus faecium (GC 4557) [1]: 8 µg/mL (≈ 5.8 µM)
MIC Escherichia coli (GC 4559) [2]: >64 µg/mL
MIC Escherichia coli (GC 4560) [2]: 2 µg/mL (≈ 1.45 µM)
MIC Coagulase Negative Staphylococcus (GC 4547) [3]: 4 µg/mL (≈ 2.9 µM)
MIC Coagulase Negative Staphylococcus (GC 4547) ([3]; broth dilution): 4 µg/mL (≈ 2.9 µM)
MIC Coagulase Negative Staphylococcus (GC 4548) [3]: 2 µg/mL (≈ 1.45 µM)
MIC Coagulase Negative Staphylococcus (GC 4548) ([3]; broth dilution): 2 µg/mL (≈ 1.45 µM)
MIC Coagulase Negative Staphylococcus (GC 4549) [3]: 2 µg/mL (≈ 1.45 µM)
MIC Coagulase Negative Staphylococcus (GC 4549) ([3]; broth dilution): 2 µg/mL (≈ 1.45 µM)
MIC Coagulase Negative Staphylococcus (GC 4551) [3]: 8 µg/mL (≈ 5.8 µM)
MIC Coagulase Negative Staphylococcus (GC 4551) ([3]; broth dilution): 8 µg/mL (≈ 5.8 µM)
MIC Coagulase Negative Staphylococcus (GC 6257) [3]: 2 µg/mL (≈ 1.45 µM)
MIC Coagulase Negative Staphylococcus (GC 6257) ([3]; broth dilution): 2 µg/mL (≈ 1.45 µM)
MIC Staphylococcus aureus (ATCC 29213) [3]: 4 µg/mL (≈ 2.9 µM)
MIC Staphylococcus aureus (ATCC 29213) ([3]; broth dilution): 4 µg/mL (≈ 2.9 µM)
MIC Staphylococcus aureus (GC 1131) [3]: 8 µg/mL (≈ 5.8 µM)
MIC Staphylococcus aureus (GC 1131) ([3]; broth dilution): 8 µg/mL (≈ 5.8 µM)
MIC Staphylococcus aureus (GC 3051) [3]: 2 µg/mL (≈ 1.45 µM)
MIC Staphylococcus aureus (GC 3051) ([3]; broth dilution): 2 µg/mL (≈ 1.45 µM)
MIC Staphylococcus aureus (GC 3053) [3]: 8 µg/mL (≈ 5.8 µM)
MIC Staphylococcus aureus (GC 3053) ([3]; broth dilution): 8 µg/mL (≈ 5.8 µM)
MIC Staphylococcus aureus (GC 4541) [3]: 4 µg/mL (≈ 2.9 µM)
MIC Staphylococcus aureus (GC 4541) ([3]; broth dilution): 4 µg/mL (≈ 2.9 µM)
MIC Staphylococcus aureus (GC 4542) [3]: 4 µg/mL (≈ 2.9 µM)
MIC Staphylococcus aureus (GC 4542) ([3]; broth dilution): 4 µg/mL (≈ 2.9 µM)
MIC Staphylococcus aureus (GC 4544) [3]: 4 µg/mL (≈ 2.9 µM)
MIC Staphylococcus aureus (GC 4544) ([3]; broth dilution): 4 µg/mL (≈ 2.9 µM)
MIC Staphylococcus aureus (GC 4545) [3]: 4 µg/mL (≈ 2.9 µM)
MIC Staphylococcus aureus (GC 4545) ([3]; broth dilution): 4 µg/mL (≈ 2.9 µM)
MIC Staphylococcus aureus-SMITH (GC 4543) [3]: 4 µg/mL (≈ 2.9 µM)
MIC Staphylococcus aureus-SMITH (GC 4543) ([3]; broth dilution): 4 µg/mL (≈ 2.9 µM)
MIC Escherichia coli (ATCC 25922) [4]: >64 µg/mL
SMILES: CCC(C)C(=O)OC1C(CO)OC(OC2C(CO)OC(Oc3ccc(CC4NC(=O)C(C(C)c5ccccc5)NC(=O)CNC(=O)C(CO)NC(=O)C(C(O)C5CNC(=N)N5C5OC(CO)C(O)C(O)C5O)NC(=O)C(C(O)C5CNC(=N)N5)NC4=O)cc3)C(O)C2O)C(O)C1O (stereo not drawn) [Example 278c, Cyclo[glycyl-β-methylphenylalanyl-O-[4-O-[4-O-(2-methylbutanoyl)hexopyranosyl]hexopyranosyl]tyrosyl-3-(2-iminoimidazolidin-4-yl)seryl-3-(3-hexopyranosyl-2-iminoimidazolidin-4-yl)serylseryl]]
MIC Staphylococcus haemolyticus (GC 4546) [3]: 2 µg/mL (≈ 1.45 µM)
MIC Staphylococcus haemolyticus (GC 4546) ([3]; broth dilution): 2 µg/mL (≈ 1.45 µM)
